According to patent US7351719B2, “Amide compounds having MCH-antagonistic activity and medicaments comprising these compounds” (Boehringer Ingelheim Pharma GmbH & Co. KG, priority 2002, dated 2008):

Target: T1, hMCH-1R (Homo sapiens, UniProt Q99705)
T1 construct: expressed in transfected cells; host or cells: CHO/Galpha16 cells (stably transfected); membranes used
Experiment: MCH-1 receptor binding test (125I-MCH binding to hMCH-1R transfected cell membranes)
Details: hMCH-1R transfected CHO/Galpha16 cell membranes
Description: Membranes from CHO/Galpha 16 cells stably transfected with human hMCH-1R are resuspended using a syringe (needle 0.6×25 mm) and diluted in test buffer (50 mM HEPES, 10 mM MgCl2, 2 mM EGTA, pH 7.00; 0.1% bovine serum albumin (protease-free), 0.021% bacitracin,1 μg/mL aprotinin, 1 μg/mL leupeptin and 1 μM phosphoramidone) to a concentration of 5 to 15 μg/mL. […] After the incubation the reaction is filtered using a cell harvester through 0.5% PEI treated glass fibre filters (GF/B, Unifilter Packard). The membrane-bound radioactivity retained on the filter is then determined after the addition of scintillator substance (Packard Microscint 20) in a measuring device (TopCount of Packard).
The analysis of the concentration binding curve is carried out on the assumption of one receptor binding site.

T1 sequence (Q99705 whole entry): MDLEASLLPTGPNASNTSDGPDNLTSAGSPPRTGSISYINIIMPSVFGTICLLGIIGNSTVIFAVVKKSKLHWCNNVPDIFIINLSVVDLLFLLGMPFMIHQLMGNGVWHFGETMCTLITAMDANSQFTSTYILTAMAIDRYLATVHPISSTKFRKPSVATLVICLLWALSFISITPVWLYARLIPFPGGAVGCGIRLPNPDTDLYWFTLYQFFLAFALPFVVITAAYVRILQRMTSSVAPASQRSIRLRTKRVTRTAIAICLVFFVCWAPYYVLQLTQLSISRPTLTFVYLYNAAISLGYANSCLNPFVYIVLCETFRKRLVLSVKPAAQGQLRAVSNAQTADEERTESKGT

Row | IC50 [nM] | Structure (SMILES)
1 | 41 | CCN(CC)CCn1ccc2cc(NC(=O)COc3ccc(C(F)(F)F)cc3Cl)ccc21 [Example 12]
2 | 17 | CCN(CC)CCOc1ccc(NC(=O)COc2ccc(C(C)(C)C)cc2Cl)cc1Cl [Example 34]
